Laboratory results reported in patent US7902196B2, “Synthesis of avrainvillamide, strephacidin B, and analogues thereof” (President and Fellows of Harvard College, priority 2005, dated 2011).

Tests used:
[1] = stability in solution protected from light
[2] = interconversion of stephacidin B (1) and 2 in solution; format: physicochemical; conditions: 50% DMSO-d6-CD3CN, 23° C.
Method: Our preliminary studies leave little doubt that 1 and 2 are readily interconverted in solution. For example, concentration of an acetonitrile-water solution of pure synthetic stephacidin B (1) at 38° C. afforded a 2:1 mixture of 2 and 1, as well as unidentified decomposition products. Also, whereas solutions of pure 1 in 50% DMSO-d6-CD3CN appeared to be stable for at least 48 h at 23° C. (The merits of the DMSO-d6-CD3CN solvent system in stabilizing stephacidin B were discussed in Qian-Cutrone et al. J. Am. Chem. Soc. 2002, 124, 14556; incorporated herein by reference.), addition of powdered 3-Å molecular sieves led to partial retro-dimerization, giving a 2:1 mixture of 1 and 2 within 1 h at 23° C. We also observed partial transformation of 1 to form 2 upon exposure to silica gel (2D-TLC analysis). From the data thus far it is clear that (−)-2 and (+)-1 readily interconvert under mild conditions. […] In theory, the converse may be true, though this seems less likely, simply upon consideration of concentration effects. Our results also leave open the possibility that stephacidin B is an artifact of the isolation of 2; the converse may be true instead, though this would appear to be less likely.

[3] = 1,5-addition of methanol-d4 to 2
[4] = tested on: multidrug-resistant bacteria; conditions: reported; cited from earlier work
[5] = tested on: cultured human cancer cells; conditions: reported for the fungal isolates; cited from earlier work
apoptosis and necrosis = test: induction of apoptosis and necrosis (FIG. 20); format: cell-based
Method: FIG. 20 induces apoptosis at 1-4 μM and necrosis at 8 μM.

cell cycle = test: effect of avrainvillamide on the cell cycle (FIG. 19); format: cell-based
[6] = decomposition of stephacidin B into avrainvillamide (FIG. 18); format: physicochemical

CC(C)(C)/C=C/C=[N+]([O-])c1ccccc1 [α-(trans-3,3-dimethyl-1-butenyl)-N-phenylnitrone]
time stable in solution ([1]; 37 mM solution in methylene-d2-chloride, 23° C., protected from light): at least 7 h
stability upon concentration to dryness ([1]; 1H NMR analysis): decomposed within two hours

avrainvillamide [compound 1]
time solutions appeared stable [2]: at least 48 h

CC1(C)C=Cc2c(ccc3c2[N+]([O-])=C2C3=C[C@@]34NC(=O)[C@]5(CCCN5C3=O)C[C@H]4C2(C)C)O1 [avrainvillamide]
equilibrium constant, methanol-d4 adducts combined to 2 ([3]; 23° C., tentative): 7.7
time to form the products of 1,5-addition of methanol-d4 ([3]; pure methanol-d4, 23° C.): < 10 min
half-life ([3]; solution in pure methanol-d4): < 10 min
antimicrobial activity [4]: anti-microbial activity against multidrug-resistant bacteria
antiproliferative activity [5]: exhibit antiproliferative activity
concentration inducing apoptosis (apoptosis and necrosis): 1 to 4 µM
concentration inducing necrosis (apoptosis and necrosis): 8 µM
effect on the cell cycle (cell cycle): induces arrest in G2/M
species present under physiological conditions [6]: major species present under physiological conditions

CC1(C)C=Cc2c(ccc3c2[N+]([O-])=C2C3=C[C@@]34NC(=O)[C@]5(CCCN5C3=O)C[C@H]4C2(C)C)O1 [compound 1, avrainvillamide]
antimicrobial activity [4]: antimicrobial activity against multidrug-resistant bacteria

CC1(C)C=Cc2c(ccc3c2[N+]([O-])=C2C(C)(C)[C@@H]4C[C@]56CCCN5C(=O)C4(NC6=O)C4N5C(=O)C67CCCN6C(=O)[C@]56C(C7)C(C)(C)c5c(c7ccc8c(c7n5O)C=CC(C)(C)O8)[C@H]6C234)O1 (stereo partly drawn) [stephacidin B]
antiproliferative activity [5]: exhibit antiproliferative activity
avrainvillamide formed by decomposition of stephacidin B [6]: 1.7 equiv.
